Patent publication US20210069295A1, “GALECTINS CONTROL MTOR IN RESPONSE TO ENDOMEMBRANE DAMAGE AND PROVIDE A MECHANISM AND TARGET FOR THE TREATMENT OF AUTOPHAGY-RELATED DISEASES” (STC. UNM, priority 2017, published 2021)
Peptide text beside a SMILES is read from it.

Key:
AMPK = AMPK activation by immunoblotting of phosphorylated AMPKα, ACC and ULK1 in HEK293A cells; format: cell-based
TAK1 = target: T1, TAK1 (Homo sapiens, UniProt O43318); assay: Co-IP of FLAG-tagged galectins with GFP-tagged TAK1 in HEK293T cells; format: binding; conditions: HEK293T overexpressing FLAG-tagged galectins and GFP-TAK1
T1 sequence (O43318 1-606): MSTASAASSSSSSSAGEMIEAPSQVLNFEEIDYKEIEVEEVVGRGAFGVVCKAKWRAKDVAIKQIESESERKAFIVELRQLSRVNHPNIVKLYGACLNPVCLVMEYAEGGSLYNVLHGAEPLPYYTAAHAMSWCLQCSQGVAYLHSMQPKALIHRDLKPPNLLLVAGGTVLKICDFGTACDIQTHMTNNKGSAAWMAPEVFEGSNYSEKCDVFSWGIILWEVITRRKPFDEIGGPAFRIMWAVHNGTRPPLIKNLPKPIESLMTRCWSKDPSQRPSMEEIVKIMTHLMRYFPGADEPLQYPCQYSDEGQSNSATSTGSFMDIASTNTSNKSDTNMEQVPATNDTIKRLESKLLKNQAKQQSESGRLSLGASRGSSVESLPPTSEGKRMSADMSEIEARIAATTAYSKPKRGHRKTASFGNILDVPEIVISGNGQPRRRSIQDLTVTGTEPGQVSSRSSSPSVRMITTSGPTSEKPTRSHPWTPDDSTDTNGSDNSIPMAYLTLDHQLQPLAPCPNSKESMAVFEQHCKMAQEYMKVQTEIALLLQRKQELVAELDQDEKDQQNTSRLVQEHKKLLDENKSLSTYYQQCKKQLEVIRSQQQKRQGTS
Experimental: (A) Analysis of the activation of AMPK in wildtype (WT) and the complementation of Gal9 in Gal9-knockout (Gal9KO) HEK293A cells treated with 100 μM GPN in full medium for 1 h. AMPK activity was monitored by immunoblotting analysis of AMPKα (T172) and acetyl-CoA carboxylase (ACC, S79) phosphorylation (phosphorylated AMPKα (T172) and ACC (S79) relative to total AMPKα and ACC respectively). (B) HEK293T cells transfected with scrambled siRNA (Scr) or Gal9 siRNA (Gal9KD) were treated with 2 mM LLOMe in full medium for 1 h, and the cell lysates were analyzed for phosphorylation of indicated proteins. Data, means±SEM, n=3, *p<0.05, ANOVA. (C) HEK293T cells overexpressing FLAG-Gal9 were treated with 2 mM LLOMe in full medium for 1 h. Cell lysates were analyzed for the indicated proteins. Data, means±SEM, n=3, *p<0.05, ANOVA. (D) Immunoprecipitation analysis of the interactions between galectins and TAK1. HEK293T cells overexpressing FLAG-tagged galectins and GFP-tagged TAK1 were subjected to anti-FLAG immunoprecipitation followed by immunoblotting for GFP-tagged TAK1. (E) Schematic diagram of Gal9 domains and deletion constructs. (F) HEK293T cells overexpressing FLAG-tagged full-length or truncated Gal9 and GFPAMPK were subjected to anti-FLAG immunoprecipitation, followed by immunoblotting for GFP-AMPK. (G) HEK293T cells overexpressing FLAG-tagged full-length or truncated Gal9 and GFP-TAK1 were subjected to anti-FLAG immunoprecipitation, followed by immunoblotting for GFP-TAK1. (H) Analysis of the activation of AMPK in HEK293T cells subjected to knockdowns as indicated treated with 100 μM GPN in full medium for 1 h. AMPK activity was monitored by immunoblotting analysis of AMPKα (T172) and acetyl-CoA carboxylase (ACC, S79) phosphorylation (phosphorylated AMPKα (T172) and ACC (S79) relative to total AMPKα and ACC respectively). Cells transfected with scrambled siRNA were as control (Scr). […]

Molecule	ULK1 pS317 (activating AMPK phosphosite) (AMPK; 100 μM GPN)	ULK1 pS757 (mTOR-dependent inactivating phosphosite) (AMPK; 100 μM GPN)	phosphorylation of S79 of acetyl-CoA carboxylase (ACC) (AMPK; 100 μM GPN)	AMPK activation (AMPKα T172 phosphorylation) (AMPK; HEK293A, 100 μM GPN in full medium)	interaction with TAK1 (TAK1)
NCC(=O)N[C@@H](Cc1ccccc1)C(=O)Nc1ccc2ccccc2c1 [GPN, glycyl-L-phenylalanine 2-naphththylamide] (HELM PEPTIDE1{G.F.[c1ccc2cc(N[*:1])ccc2c1]}$$$$V2.0)	increase	decreased	elevated phosphorylation	activated	–
Gal8: protein of the galectin family encoded by the gene LGALS8; beta-galactoside-binding lectin	–	–	–	–	not
Gal9: beta-galactoside-binding lectin protein of the galectin family	–	–	–	–	interacted
